Consider 6 compounds from patent publication US7666905B2, “Compositions comprising hepoxilin analogs and their use in the treatment of cancer” (priority 2002, dated 2010).

Data set [1] relates to K562 CML cells. The experiment in a line: 3H-thymidine incorporation in K562 CML cells. The note with it: for effect on K562 cell growth: FIGS. 1-4. In kind it is cell-based, human. The protocol:
Cell culture. Human leukemia K562 cells, obtained from the Hematology Department of the Hospital for Sick Children, were maintained as suspension cultures in RPMI 1640 medium containing 100 U/ml penicillin G, 100 μg/ml streptomycin, 10% (v/v) fetal bovine serum in a humidified atmosphere of 5% CO2 at 37° C. The ability of the cells to exclude Trypan Blue dye was used to assess cell viability.
Cells were seeded in 24 well dishes at a cell number of 5×10^4 cells/ml in starving medium (SM) of alpha Modified Eagle's Medium without fetal bovine serum (FBS) supplementation and incubated at 37° C. for 12 h. Tritiated thymidine ([^3H]-Thymidine; 25 Ci/mmol stock) was diluted in SM to a final activity of […]. The pharmacological agents tested were all diluted from their respective stocks to the desired concentration(s) with the tritiated SM. Cells receiving no drug treatments and cells treated with DMSO only were used as controls. SM was removed from the dishes, then treated with the various pharmacological agents in SM containing tritiated thymidine for 6 h at 37° C. PBT-3 was used at 2.8 μM in DMSO, (other than in dose response studies), I-BOP was used at 1.0 μM (in DMSO) and U46619 was used at 1.0 μM (in DMSO). Cells were trypsinized after 6 h and washed through Whatman GF-B/C membranes along with the supernatant. Dried membranes were deposited in scintillation vials with 8ml scintillation cocktail and the radioactivity present in the cells was counted with a liquid scintillation counter.
The effect of hepoxilin analogs on leukemia cells was examined using the CML K562 cell line. This cell line was derived from a human CML patient and is an accepted model of human chronic leukemia. The K562 cell line expresses the bcr/abl protein (Lozzio & Lozzio, 1975). It is relatively resistant to apoptosis (Martin et al., 1990), but ST1571 and other agents appear to control cell growth for a while before the cells overcome the drug effect (Weisberg & Griffin, 2000).
Background: Dividing cells build labelled thymidine or BrdU into new DNA.

Data set [2] deals with K562 CML cells. The experiment in a line: DNA fragmentation (laddering) by agarose gel electrophoresis in K562 cells. In kind it is cell-based, human. The note with it: PBT-3 2.8 μM, 24 or 72 hours, FIG. 5 Panel A. The procedure:
Analysis of DNA fragmentation by gel electrophoresis. […] The samples were loaded on 2% agarose gel containing ethidium bromide (0.2 μg/ml). DNA fragments of known size were used as a reference marker. After electrophoresis at 25 V for 5 hours, the gels were photographed under trans-UV illumination.
Studies were carried out to determine if PBT-3 affected apoptosis in K562 CML cells. Cells were cultured for 24 or 72 hours in the presence of growth medium (control) or PBT-3 (2.8 μM). Apoptosis was examined by DNA laddering. Cultures were harvested, DNA was extracted with DNeasy (Qiagen) and samples were loaded on a 2% agarose gel containing 0.2 μg/ml ethidium bromide. A λ BstII DNA digest with DNA fragments of known size was used as a reference marker. After electrophoresis at 25V for 5 h, gels were photographed under trans-UV illumination.

Data set [3] has as its system K562 cells. The experiment in a line: Nuclear fragmentation by Hoechst 33342 staining of K562 cells. In kind it is cell-based, human. The note with it: Hoechst 33342 dye, FIG. 5 Panel B; STI571 1 μM, I-BOP 1 μM. The procedure:
Quantification of apoptosis and cell viability. Induction of apoptosis and loss of cell viability after treatment with PBT-3 were assessed by staining the cells with Hoechst 33342 dye. […] Pellets were suspended with 5 μg/ml of Hoechst 33342 dye for 10 minutes at room temperature. Micrographs of the DNA-stained cells were taken with a Zeiss Axiovert 100 TV video camera. Images were captured using Axiovision version 3.0.6 and processed using Photoshop 5.0. Apoptotic cells were identified based on nuclear fragmentation and chromatin condensation around the nucleus.
Nuclear fragmentation was assessed by direct microscopy of treated cells stained with Hoechst 33342 dye.

In data set [4] the test system is MDA-MB 231 breast cancer cells. The experiment in a line: FACS analysis of breast cancer cell line MDA-MB 231. In kind it is cell-based. The conditions noted are these: FIG. 7. The procedure: (§1) Cells were seeded at 1×10^6 cells/ml and treated as above. Cells were scraped into 1×PBS, pelleted, washed, and repelleted as above. Cells were washed with PBS twice and scraped. The cells were pelleted by centrifugation at 1500 rpm, 5 min, at 23° C. and washed again. Cells were fixed with 50 μl PBS/HBSS with 2% calf serum and then with addition of 1 ml ice cold 80% ethanol. Samples were incubated on ice for 30 min and PBS/HBSS fixing was repeated and followed by adding 1 ml 70% ethanol. Centrifugation (1500 rpm, 5 min, room temperature) was performed to produce cell pellets that were resuspended by 250 μl of 0.1 mg/ml Propidium Iodide (Sigma) with 0.6% NP-40. 250 μl of 2 mg/ml RNAse was added and mixed well. Cells were incubated in the dark for 30 min at room temperature. Samples were then filtered through 85 μm Nitex mesh and the stained cells were analyzed on a flow cytometer of FACScan (Becton-Dickinson). The acquisition was done with 10,000 events per sample. The CellQuest (Becton-Dickinson) statistic analysis was performed in each individual experiment.
(In general: Flow cytometry measures light scatter and fluorescence of single cells or particles in a stream.)

The test system of data set [5] is normal bone marrow cells. Kind of data set: FACS analysis of apoptosis in normal bone marrow cells. The note with it: FIG. 8. In kind it is cell-based. The procedure: as §1
The test system of data set [6] is normal aortic smooth muscle cells. Kind of data set: FACS analysis of apoptosis in normal aortic smooth muscle cells. In kind it is cell-based. The conditions noted are these: FIG. 9. The procedure: as §1
For data set [7], the system named is 3T3 L1 adipocytes. The experiment in a line: FACS analysis of apoptosis in normal 3T3 L1 adipocytes. The conditions noted are these: FIG. 10. In kind it is cell-based. The procedure: as §1
In data set [8] the test system is Akt. The experiment in a line: Western blot of Akt phosphorylation in K562 cells. The class given is cell-based, human. The note with it: FIG. 11. The procedure:
(§2) Cells were seeded in 100 mm culture dishes at a cell count of 5×10^4 cells/ml in 10 ml of SM and incubated at 37° C. for 12 h. Drug treatments were: DMSO as control, 0.05 μM I-BOP in DMSO, 0.5 μM I-BOP with 2.8 μM PBT-3, or 2.8 μM PBT-3 in DMSO. These concentrations were chosen based on results generated from the cell proliferation studies using thymidine incorporation. Cells were treated with drugs as described above for 6 h. After 6 h, cells were washed with 1×PBS and scraped, pelleted by centrifugation (1500 rpm, 5 min, room temperature), and washed again and pelleted as above. 200 μl cell lysis buffer (20 mM Tris-d pH 7.4, 150 mM NaCl, 1 mM EDTA, 1 mM EGTA, 1% Tx-100, 2.5 mM […], 1 mM β-glycerophosphate, 1 mM […], 1 μg/ml leupeptin, and 1 mM PMSF) were added to resuspend each pellet followed by 30 minutes of incubation on ice. […] Protein concentration was determined using a BSA standard with a BCA protein assay kit, prior to Western blotting.
(§3) Aliquots of protein (40 μg) were heated to 90° C. in SDS sample load buffer for 5 minutes, then separated by SDS-PAGE on 10% gels and transferred to nitrocellulose membranes. […] Membranes were then washed 5× in TBS-T. Bound first antibodies were detected by HRP-anti-rabbit immunoglobulins at 1:1000 in 5% non-fat dry milk for 1 h at room temperature, washing 5× in TBS-T then with enhanced chemiluminscent autoradiography (ECL). […]
(Immunoblotting shows a protein as a band on a membrane.)

Data set [9] deals with Bcl-XL. Kind of data set: Western blot of Bcl-XL expression in K562 cells. The conditions noted are these: FIG. 11. In kind it is cell-based, human. The procedure: as §2, §3
The test system of data set [10] is caspase-3. Kind of data set: Western blot of caspase-3 activation (cleavage to 17 kDa fragment) in K562 cells. The class given is cell-based, human. The note with it: FIG. 14.
Description: Western blot. […] Treatment was terminated by washing cells with ice-cold PBS buffer. Cell lysates were prepared in buffer containing 20 mM Tris-HCl pH 7.4, 150 mM NaCl, 1 mM EDTA, 1 mM EGTA, 1% Triton X-100, 2.5 mM sodium pyrophosphate, 1 mM β-glycerophosphate, 1 mM sodium orthovanadate, 1 mM PMSF and 1 μM leupeptin on ice for 60 minutes. The lysates were clarified by centrifugation at 15,000×g for 15 minutes at 4° C. Lysates were subjected to protein assay and kept at −80° C. 250 μg protein was immunoprecipitated with anti-cytochrome c antibody or anti-caspase-3 antibody coupled to protein A-agarose beads. After washing of the immunocomplexes with lysis buffer, SDS-PAGE sample loading buffer was added and the mixture was boiled for 5 minutes. After centrifugation, the supernatant was loaded onto 10-12% SDS-PAGE gel, and transferred to the Trans-Blot Nitrocellulose membrane (Bio-Rad). Protein bands on the nitrocellulose membranes were checked visually with Ponceau S-staining to assure equivalent protein loading/transfer comparing different samples. […] Bound antibodies were detected using enhanced chemilluminescence (ECL) kit and the membranes were exposed to Hyperfilm for ECL.
For data set [11], the system named is K562 cells. The experiment in a line: 3H thymidine uptake in K562 cells after 2 days treatment, cell number reduction and culture without drug. The conditions noted are these: PBT analogues 28 μM, I-BOP and STI571 1 μM, then 3 days without compounds, FIG. 13. The class given is cell-based, human. The protocol:
K562 cells (3×10^5 cells/plate) were cultured for 2 days in 1% FBS/αMEM in the presence of 28 μM PBT-3 (∘) or 1 μM STI (●) and ^3H thymidine incorporation was determined. Untreated control cells (□) and cells treated with DMSO alone (▪) were also examined (test compounds were dissolved in DMSO). Results are shown in FIG. 12, Panel A. The cell number in all dishes was reduced to that observed after two days of PBT-3 treatment (7.5×10^3/ml) and the cells were subsequently cultured for 3 days in 10% FBS in the absence of the test compounds.
The hepoxilin analogs compare very favourably in efficacy with STI571.

`CCCCC[C@H](O)/C=C/[C@@H]1[C@@H](C/C=C\CCCC(=O)O)[C@H]2CO[C@@H]1C2` [U46619]: in data set [1], the “effect on K562 cell growth” value is on record as “neither the thromboxane receptor agonists nor the thromboxane receptor antagonist affected K562 cell growth”.
For `CCCCC/C=C\CC1CC1C(O)/C=C\C/C=C\CCCC(=O)OC` [PBT-3, 10(S)-hydroxy-11,12-cyclopropyl-eicosa-5Z,8Z,14Z-trienoic acid methyl ester], the “concentration of maximum effect on inhibition of K562 cell growth” value in data set [1] (FIG. 1) was determined as 1 µg/mL. Also, in data set [1], the “effect on K562 cell growth” value was “inhibited growth of K562 cells”. In addition, in data set [2], the “DNA fragmentation associated with apoptosis” value is reported as “causes DNA fragmentation associated with apoptosis”. The “apoptotic effect (fragmentation of the nucleus and chromatin condensation)” value in [3] was “produced apoptotic cells”. Moreover, the “synchronisation of cells (to Go phase)” value in data set [4] is “synchronisation effect”. In addition, in data set [5], the “apoptotic effect on normal bone marrow cells” value is “no apoptotic effect”. The “apoptotic effect on normal aortic smooth muscle cells” value in data set [6] is “no apoptotic effect”. Also, the “apoptotic effect on normal (3T3 L1) adipocytes” value in [7] is “no apoptotic effect”. For the same compound, the “effect on phosphorylation of Akt” value in data set [8] is listed as “blocked phosphorylation of Akt”. Moreover, the “effect on expression of the Bcl pathway (Bcl-XL)” value in [9] is “essentially inactive”. The “time of caspase-3 activation (cleavage into a 17 kDa fragment)” value in [10] was 6 h.
On to `O=C(O)CCC/C=C\C[C@@H]1[C@H](CNNC(=O)Nc2ccccc2)[C@H]2CC[C@@H]1O2` [SQ 29,548], for which the “effect on K562 cell growth” value in [1] is “neither the thromboxane receptor agonists nor the thromboxane receptor antagonist affected K562 cell growth”.
Take `Cc1ccc(NC(=O)c2ccc(CN3CCN(C)CC3)cc2)cc1Nc1nccc(-c2cccnc2)n1` [STI571, Imatinib, reference compound]: the “effect on phosphorylation of Akt” value in [8] was “increased it”. Also, in [9], the “effect on expression of the Bcl pathway (Bcl-XL)” value is reported as “blocked the expression of the Bcl pathway (Bcl-XL)”.
For the compound `CCCCC/C=C\CC1CC1/C=C/C(O)C/C=C\CCCC(=O)OC` [PBT-2, 8(R)-hydroxy-11, 12-cyclopropyl-eicosa-5Z, 9E, 14Z-trienoic acid methyl ester], the “effectiveness in inhibiting cell growth (rank among treatments)” value in data set [11] was “most effective treatment”.
On to `O=C(O)CCC/C=C\CC1C2CCC(O2)C1/C=C/C(O)COc1ccc(I)cc1` (stereo not drawn) [I-BOP, [1S-[1α,2α(Z),3β(1E, 3S*), 4α]]-7-[3-[3-hydroxy-4-(iodophenoxy)-1-butenyl]-7-oxabicyclo[2.2.1]hept-2-yl]-5-heptenoic acid, reference compound], for which, in [1], the “effect on K562 cell growth” value was “neither the thromboxane receptor agonists nor the thromboxane receptor antagonist affected K562 cell growth”. Moreover, in [3], the “apoptotic effect (fragmentation of the nucleus and chromatin condensation)” value was “No similar apoptotic effect”.
